Like-named read-outs stand apart in the source and are kept apart here.
Key:
CYP2A6 [1] = test system: CYP2A6
Protocol: The reactions were stopped by collection of the incubation medium. Then, potential metabolite conjugates formed via Phase II activity were hydrolyzed by incubation of supernatants with β-glucuronidase/arylsulfatase (Roche, IN) for 2 hours at 37° C. Samples were diluted 1:1 in quenching solution and fluorescent metabolite formation was quantified by means of a fluorescence micro-plate reader (Molecular Devices, Sunnyvale, Calif.) as described elsewhere in detail. Production of 7-HC from CM is a reaction (CM 7-Hydroxylation) mediated by CYP2A6 in humans, production of 7-HFC from BFC or MFC (dealkylation) is mediated by several different CYP450s, and production of RR from ER (ER Odealkylation) is mediated by CYP1A2.
Cytochrome-P450 Induction. Stock solutions of prototypic CYP450 inducers (Sigma) were made in dimethylsulfoxide (DMSO), except for Phenobarbital, which was dissolved in water. Cultures were treated with inducers (Rifampin 25 μM, β-Naphthoflavone 30 μM or 50 μM, Phenobarbital 1 mM, Omeprazole 50 μM) dissolved in hepatocyte culture medium for 4 days. Control cultures were treated with vehicle (DMSO) alone for calculations of fold induction. To enable comparisons across inducers, DMSO levels were kept constant at 0.06% (v/v) for all conditions.

CYP1A2 [2] = details: human and rat, 4 days, 50 µM
CYP2B [3] = test system: CYP2B
CYP3A [4] = details: hepatocytes
[5] = test system: micropatterned human co-cultures (primary human hepatocytes with 3T3-J2 fibroblasts); details: MTT
Protocol: Cultures were incubated with various concentrations of compounds dissolved in culture medium for 24 hours (acute toxicity) or extended time periods (chronic toxicity, 1-4 days). Cell viability was subsequently measured via the MTT (3-(4,5-dimethylthiazol-2-yl)-2,5-diphenyl tetrazolium bromide; Sigma) assay, which involves cleavage of the tetrazolium ring by mitochondrial dehydrogenase enzymes to form a purple precipitate. MTT was added to cells in DMEM without phenol red at a concentration of 0.5 mg/mL. After an incubation time of 1 hour, the purple precipitate was dissolved in a 1:1 solution of DMSO and Isopropanol. The absorbance of the solution was measured at 570 nm (SpectraMax spectrophotometer, Molecular Devices, Sunnyvale, Calif.).
Use of optimized micropatterned human co-cultures to evaluate metabolism and toxicity of xenobiotics. […] Acute toxicity tests involved incubating eight day old co-cultures for 24 hrs with various drugs, some with known clinical hepatotoxic potential. After the incubation time period, the cell culture medium was aspirated and a viability assay was conducted (MTT assay—commercially available). […]
To assess utility of the microscale human liver tissue for toxicity assays, the acute and chronic toxicity of model hepatotoxins were quantified. […]

CYP2A6 [6] = molecular target: T1, CYP2A6 (Homo sapiens, UniProt P11509)
T1 sequence (P11509 1-494): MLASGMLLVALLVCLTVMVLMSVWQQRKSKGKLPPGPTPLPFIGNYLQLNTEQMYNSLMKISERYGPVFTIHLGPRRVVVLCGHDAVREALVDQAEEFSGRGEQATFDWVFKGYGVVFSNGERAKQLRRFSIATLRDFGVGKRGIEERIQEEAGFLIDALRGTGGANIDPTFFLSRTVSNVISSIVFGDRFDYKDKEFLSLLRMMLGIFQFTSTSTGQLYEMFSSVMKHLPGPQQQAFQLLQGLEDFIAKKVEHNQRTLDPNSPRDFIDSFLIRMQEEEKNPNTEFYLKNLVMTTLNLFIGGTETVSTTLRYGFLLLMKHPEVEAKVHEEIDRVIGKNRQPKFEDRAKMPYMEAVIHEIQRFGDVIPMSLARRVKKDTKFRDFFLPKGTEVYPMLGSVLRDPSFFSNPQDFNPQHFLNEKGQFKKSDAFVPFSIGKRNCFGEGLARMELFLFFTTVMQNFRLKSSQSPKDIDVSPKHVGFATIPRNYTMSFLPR
Protocol: Mitochondrial activity was measured using the MTT assay. All data was normalized to vehicle-only controls. […] ER, Ethoxy-resorufin. […] Error bars represent standard error of the mean (n=3).
The reactions were stopped by collection of the incubation medium. Then, potential metabolite conjugates formed via Phase II activity were hydrolyzed by incubation of supernatants with β-glucuronidase/arylsulfatase (Roche, IN) for 2 hours at 37° C. Samples were diluted 1:1 in quenching solution and fluorescent metabolite formation was quantified by means of a fluorescence micro-plate reader (Molecular Devices, Sunnyvale, Calif.) as described elsewhere in detail.

CYP2B [7] = assay: CYP2B protein induction in static and perfused bioreactor hepatocyte cultures
CYP3A [8] = assay: CYP3A protein induction in static and perfused bioreactor hepatocyte cultures
CYP1A2 [9] = assay: Induction of CYP1A2 activity in microscale liver tissues (ethoxyresorufin dealkylation); details: incubation 1 or 3 days, varying dose
[10] = treated 4 days with prototypic inducers
[11] = static cultures, 48 hour induction

With CO[C@H]1/C=C/O[C@@]2(C)Oc3c(C)c(O)c4c(O)c(c(/C=N/N5CCN(C)CC5)c(O)c4c3C2=O)NC(=O)/C(C)=C\C=C\[C@H](C)[C@H](O)[C@@H](C)[C@@H](O)[C@@H](C)[C@H](OC(C)=O)[C@@H]1C [Rifampin] the CYP2A6 induction (CYP2A6 [1]) was “induction was observed”.

In the case of COc1ccc2[nH]c([S+]([O-])Cc3ncc(C)c(OC)c3C)nc2c1 (stereo not shown) [Omeprazole], the CYP2A6 induction (CYP2A6 [1]) is reported as “weaker effects” and the “Effectiveness of CYP1A2 induction in human over rat models” value (CYP1A2 [2]) is reported as 8 fold.

“EGF: epidermal growth factor, added to perfusion media with PB or DEX” was tested, and the “Effect on DEX-induced CYP2B” value (CYP2B [3]) was “significant shift in CYP2B spatial distribution was noted from inlet regions to the outlet” and the “Effect on DEX-induced CYP3A induction” value (CYP3A [4]) was “remained uniform”.

For [Cl][Cd][Cl] [Cadmium, Cadmium chloride], the “Relative acute toxicity in vitro” value ([5]; 24 hrs incubation) was “severely toxic” and the “Shape of dose-dependent toxicity profile” value ([5]; acute exposure 24 hours) was “relatively linear toxic profile”.

COc1c2occc2cc2ccc(=O)oc12 [methoxsalen, Methoxsalen] was tested, and the “Inhibition of CYP2A6 activity” value (CYP2A6 [6]) was “dose-dependent inhibition”.

CCC1(c2ccccc2)C(=O)NC(=O)NC1=O [Phenobarbital] was tested, and the CYP2A6 induction (CYP2A6 [1]; [10]) was “induction was observed”, the CYP2B expression (CYP2B [7]; perfused cultures, 36 hours) was “Dramatic expression of both CYPs over controls” and the CYP2B expression (CYP2B [7]; [11]) was “moderate”. For the same compound, the CYP3A expression (CYP3A [8]; perfused cultures, 36 hours) was “Dramatic expression of both CYPs over controls” and the CYP3A expression (CYP3A [8]; [11]) was “low”.

In the case of O=c1cc(-c2ccccc2)oc2ccc3ccccc3c12 [β-Naphthoflavone], the CYP2A6 induction (CYP2A6 [1]; [10]) is reported as “weaker effects” and the “Induction of CYP1A2 activity” value (CYP1A2 [9]) is reported as “dose and time-dependent manner”.

In the case of C[C@@H]1C[C@H]2[C@@H]3CCC4=CC(=O)C=C[C@]4(C)[C@@]3(F)[C@@H](O)C[C@]2(C)[C@@]1(O)C(=O)CO [DEX, dexamethasone], the CYP2B induction (CYP2B [3]) is reported as “high levels”.

From US20160252494A1, “MICROSCALE MICROPATTERNED ENGINEERED IN VITRO TISSUE” (priority 2005, published 2016)
